Measurements published in patent publication EP4656642A1, “ESTROGEN RECEPTOR PROTEOLYSIS TARGETING CHIMERA COMPOUND AND USE THEREOF” (GAN & LEE PHARM CO., LTD, priority 2023, dated 2024).

Columns and labels:
Type in all cases: cell-based
T-47D cells = assay: Inhibition of cell proliferation in T-47D cells (CCK-8, 6 days); details: 6 days of treatment
From the text: Test Example 2: Inhibitory effect of the PROTAC compounds provided in the present disclosure on cell proliferation in T-47D cells (source ATCC)
The complete medium required for T-47D cells was 1640 ( ATCC, Product number: A10491-01) basal medium containing 10% fetal bovine serum. T-47D cells were inoculated in 96-well plates at a density of 3,000 cells/well, and different concentrations of the PROTAC compounds 1-55 provided in the examples of the present disclosure and a positive control sample ARV-471 (source: Innochem) were prepared to treat cells, and the cells were treated at 37°C in a cell culture incubator with 5% CO2 for 6 days. Cell viability was detected using a CCK-8 kit (Beyotime, Product number: C0040) according to the manufacturer's instructions. […] Table 2 IC50 values for inhibition of the proliferation of T-47D cells by the PROTAC compounds provided by the present disclosure and the positive control sample

MCF-7 cells = assay: Inhibition of cell proliferation of MCF-7 cells (CCK-8, 9 days)
How it was run: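 MCF-7 cells seeded at 800 cells/well in DMEM with 10% FBS, exposed to a range of compound concentrations for 9 days at 37°C, 5% CO2. Viability read by CCK-8; IC50 derived for proliferation inhibition.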

ERα [1] = biological target: T1, ERα (Homo sapiens, UniProt P03372); assay: Degradation of ERα in T-47D cells (immunoblotting, 4 h); set-up: host or cells: T-47D
T1 sequence (P03372 1-595): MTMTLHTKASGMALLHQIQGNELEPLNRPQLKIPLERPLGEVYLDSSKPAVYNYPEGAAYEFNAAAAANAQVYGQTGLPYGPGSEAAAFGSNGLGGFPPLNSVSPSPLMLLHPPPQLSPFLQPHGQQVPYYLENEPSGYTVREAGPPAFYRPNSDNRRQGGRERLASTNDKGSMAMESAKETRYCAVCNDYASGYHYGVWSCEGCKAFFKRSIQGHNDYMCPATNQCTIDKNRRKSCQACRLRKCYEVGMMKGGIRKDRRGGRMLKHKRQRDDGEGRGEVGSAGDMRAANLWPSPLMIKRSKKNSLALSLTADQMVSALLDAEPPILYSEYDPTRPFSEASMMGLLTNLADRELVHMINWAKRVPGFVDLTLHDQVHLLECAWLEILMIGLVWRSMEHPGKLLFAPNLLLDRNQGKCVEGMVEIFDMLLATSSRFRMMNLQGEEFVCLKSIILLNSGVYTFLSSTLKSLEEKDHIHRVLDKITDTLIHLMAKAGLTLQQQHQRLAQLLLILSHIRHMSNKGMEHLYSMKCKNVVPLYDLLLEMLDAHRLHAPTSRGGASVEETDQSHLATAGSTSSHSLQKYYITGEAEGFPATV
How it was run: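 T-47D cells were treated with compound (final 0.15-1000 nM, DMSO) for 4 h at 37°C, 5% CO2. Cells were lysed in RIPA buffer with protease inhibitor, and ERα protein in the cleared lysate was measured by immunoblotting.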

ERα [2] = biological target: T1, ERα; assay: Degradation of ERα in MCF-7 cells (immunoblotting, 4 h)
How it was run: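 MCF-7 cells treated 4 h at 37°C with compounds at 0.15-1000nM final. ERα in lysates measured by immunoblot, with band grayscale normalized to an internal reference protein. Degradation rate calculated against DMSO-treated control.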

[3] = treated for 9 days, CCK-8 kit (Table 6)

Row | IC50 (T-47D cells; Table 3) [nM] | IC50 (MCF-7 cells; [3]) [nM] | Degradation rate (%) of ERα in T-47D cells (ERα [1]; 1nM compound) [%] | Degradation rate (%) of ERα in T-47D cells (ERα [1]; 10nM compound) [%] | Degradation rate (%) of ERα in MCF-7 cells (ERα [2]; 1nM compound) [%] | Degradation rate (%) of ERα in MCF-7 cells (ERα [2]; 10nM compound) [%] | IC50 (T-47D cells; Table 2) [nM] | IC50 (MCF-7 cells; 9 days of treatment, CCK-8, Table 5) [nM] | SMILES
1 | 1.01 | 8.41 | 62 | 83 | 36 | 65 | – | – | C[C@@H]1C[C@H](N2CCC3(CC2)COc2c3ccc3c2CN(C2CCC(=O)NC2=O)C3=O)CCN1C(=O)C1CCN(c2ccc([C@@H]3c4ccc(O)cc4CC[C@@H]3c3ccccc3)cc2)CC1 (stereo partly drawn) [H28]
2 | 200 | 2410 | -43 | -56 | -20 | -37 | – | – | O=C1CCC(N2Cc3cc4c(cc3C2=O)OC2(CC4)CN(CC3CCN(c4ccc([C@@H]5c6ccc(O)cc6CC[C@@H]5c5ccccc5)cc4)CC3)C2)C(=O)N1 (stereo partly drawn) [H3]
3 | 41 | 590 | 54 | 84 | -3 | 64 | – | – | C[C@@H]1Cc2c(ccc3[nH]ncc23)C(c2ccc(N3CCC4(CCC(N5CCC6(CC5)COc5c6ccc6c5CN(C5CCC(=O)NC5=O)C6=O)CC4)CC3)cn2)N1CC(F)(F)F (stereo partly drawn) [K41]
4 | 6 | 48 | -15 | 13 | -23 | -24 | – | – | O=C1CCC(N2Cc3cc4c(cc3C2=O)CCC2(CN(CC3CCC5(CC3)CN(c3ccc([C@@H]6c7ccc(O)cc7CC[C@@H]6c6ccccc6)cc3)C5)C2)O4)C(=O)N1 (stereo partly drawn) [M15]
5 | 2.58 | 31.8 | 34 | 75 | 49 | 71 | – | – | CNC(=O)[C@@H]1CC(N2CCC3(CC2)COc2c3ccc3c2CN(C2CCC(=O)NC2=O)C3=O)CCN1C1CC2(CCN(c3ccc([C@@H]4c5ccc(O)cc5CC[C@@H]4c4ccccc4)cc3)CC2)C1 (stereo partly drawn) [H38]
6 | 4.92 | 195 | 30 | 70 | -4 | 1 | – | – | CN(CC1CCN(c2ccc([C@@H]3c4ccc(O)cc4CC[C@@H]3c3ccccc3)cc2)CC1)[C@H]1CC[C@H](C(=O)N2CCC3(CC2)COc2c3ccc3c2CN(C2CCC(=O)NC2=O)C3=O)CC1 (stereo partly drawn) [N3]
7 | 1.18 | 10.3 | 48 | 73 | 46 | 62 | – | – | C[C@@H]1Cc2c([nH]c3ccccc23)[C@@H](c2c(F)cc(N3CCN(C[C@H]4CC[C@H](C(=O)N5CCC6(CC5)COc5c6ccc6c5CN(C5CCC(=O)NC5=O)C6=O)CC4)CC3)cc2F)N1CC(F)F (stereo partly drawn) [A114]
8 | 2.93 | 92.5 | 38 | 49 | 27 | 42 | – | – | O=C1CCC(N2Cc3c(ccc4c3OCC43CCN(C(=O)C4CCC(CN5CCC(C#Cc6ccc(C7c8ccc(O)cc8CCC7c7ccccc7)cc6)CC5)CC4)CC3)C2=O)C(=O)N1 (stereo not drawn) [C6]
9 | – | – | -9 | -45 | -2 | -29 | 5.2 | 130 | O=C1CCC(N2Cc3ccc4c(c3C2=O)OC2(CC4)CCN(C3CCC4(CC3)CCN(c3ccc([C@@H]5c6ccc(O)cc6CC[C@@H]5c5ccccc5)cc3)CC4)CC2)C(=O)N1 (stereo partly drawn) [L1]
10 | 10.1 | 63.3 | 66 | 77 | 48 | 47 | – | – | C[C@@H]1Cc2c(ccc3[nH]ncc23)[C@@H](c2ccc(N3CCN(C[C@H]4CC[C@H](C(=O)N5CCC6(CC5)COc5c6ccc6c5CN(C5CCC(=O)NC5=O)C6=O)CC4)CC3)cn2)N1CC(F)(F)F (stereo partly drawn) [A117]
11 | 22.4 | 2260 | 18 | 12 | -3 | -12 | – | – | O=C1CCC(N2Cc3ccc4c(c3C2=O)OCC2(CCN(CC3CCN(c5ccc([C@@H]6c7ccc(O)cc7CC[C@@H]6c6ccccc6)cc5)CC3)CC2)C4)C(=O)N1 (stereo partly drawn) [H5]
12 | 1.88 | 5.05 | 59 | 83 | 63 | 80 | – | – | O=C1CCC(N2Cc3c(ccc4c3OCC43CCN(C4CCN(C5CC6(CCN(c7ccc([C@@H]8c9ccc(O)cc9CC[C@@H]8c8ccccc8)cc7)CC6)C5)[C@H](C(=O)NC5CC5)C4)CC3)C2=O)C(=O)N1 (stereo partly drawn) [H41]
13 | 1.03 | 21700 | 54 | 68 | 55 | 55 | – | – | C[C@H]1CN(c2ccc([C@@H]3c4ccc(O)cc4CC[C@@H]3c3ccccc3)cc2)CCN1C[C@H]1CC[C@H](C(=O)N2CCC3(CC2)COc2c3ccc3c2CN(C2CCC(=O)NC2=O)C3=O)CC1 (stereo partly drawn) [B36]
14 | 316 | 7150 | 42 | 68 | 24 | 43 | – | – | C[C@@H]1Cc2c(ccc3[nH]ncc23)C(c2ccc(N3CC4(CCC(N5CCC6(CC5)COc5c6ccc6c5CN(C5CCC(=O)NC5=O)C6=O)CC4)C3)cn2)N1CC(F)(F)F (stereo partly drawn) [B49]
15 | 1.78 | 52.8 | 42 | 79 | 50 | 72 | – | – | C[C@@H]1CC2(CCN(c3ccc([C@@H]4c5ccc(O)cc5CC[C@@H]4c4ccccc4)cc3)CC2)CN1CC(=O)N1CCC2(CC1)COc1c2ccc2c1CN(C1CCC(=O)NC1=O)C2=O (stereo partly drawn) [A90]
16 | 1.2 | 190 | 43 | 74 | 19 | 62 | – | – | C[C@@H]1Cc2c([nH]c3ccccc23)[C@@H](c2c(F)cc(N3CCC(C(=O)N4CCC(N5CCC6(CC5)COc5c6ccc6c5CN(C5CCC(=O)NC5=O)C6=O)CC4)CC3)cc2F)N1CC(F)F (stereo partly drawn) [A106]

Row | SMILES | IC50 (T-47D cells; Table 3) [nM] | IC50 (MCF-7 cells; [3]) [nM] | Degradation rate (%) of ERα in T-47D cells (ERα [1]; 1nM compound) [%] | Degradation rate (%) of ERα in T-47D cells (ERα [1]; 10nM compound) [%] | Degradation rate (%) of ERα in MCF-7 cells (ERα [2]; 1nM compound) [%] | Degradation rate (%) of ERα in MCF-7 cells (ERα [2]; 10nM compound) [%] | IC50 (T-47D cells; Table 2) [nM] | IC50 (MCF-7 cells; 9 days of treatment, CCK-8, Table 5) [nM]
17 | O=C1CCC(N2Cc3cc4c(cc3C2=O)OC2(CC4)CN(C(=O)C3CCC4(CC3)CN(c3ccc([C@@H]5c6ccc(O)cc6CC[C@@H]5c5ccccc5)cc3)C4)C2)C(=O)N1 (stereo partly drawn) [A47] | 11.7 | 871 | -10 | 37 | 9 | 14 | – | –
18 | O=C1CCC(N2Cc3ccc4c(c3C2=O)OC2(CC4)CCN(C3CC4(CCN(c5ccc([C@@H]6c7ccc(O)cc7CC[C@@H]6c6ccccc6)cc5)CC4)C3)CC2)C(=O)N1 (stereo partly drawn) [A45] | 79 | 160 | -6 | -28 | -3 | -15 | – | –
